# Assay results: patent US20250297244A1, “COMPOSITIONS AND METHODS FOR THE DIAGNOSIS AND TREATMENT OF SEVERE COVID 19 AND OTHER IN[…]” (THE CHILDREN'S HOSPITAL OF PHILADELPHIA, priority 2022, published 2025)
# “Also recorded” adds a separate entry of the source.
# Tests used:
# [1] = test system: human tonsillar organoids; experiment: in vitro human tonsillar organoid model of T cell-dependent germinal center B cell differentiation; type: cell-based
# murine Th1 cells = experiment: IFNg production by murine Th1 cells after in vitro activation; type: cell-based; settings: low doses; anti-CD3+anti-CD28 beads for 6 hours
# Protocol: (§1) FIGS. 14A-14B. Dose-dependent effect of lometrexol on IFNg production by murine Th1 cells (FIG. 14A) and IL-4 production by murine Th2 cells (FIG. 14B) following in vitro activation with anti-CD3+anti-CD28 beads for 6 hours.
# murine Th2 cells = experiment: IL-4 production by murine Th2 cells after in vitro activation; type: cell-based; settings: low doses; anti-CD3+anti-CD28 beads for 6 hours
# Protocol: as §1
# human CD4+ T cells = experiment: proliferation of activated human CD4+ T cells (anti-CD3+anti-CD28 beads, CFSE flow cytometry); type: cell-based; settings: activated in vitro for 72 hours with anti-CD3+anti-CD28 beads
# Protocol: FIG. 13. […] Human CD4+ T cells were activated in vitro for 72 hours using anti-CD3+anti-CD28 beads, and cell division was monitored by flow cytometry using CFSE, and the number of daughter cells generated was determined.
# [2] = biological target: thymidylate synthase (TS) (Homo sapiens, UniProt P04818); settings: in vitro studies; cited from earlier work
# [3] = biological target: dihydrofolate reductase (DHFR) (Homo sapiens, UniProt P00374); settings: in vitro studies; cited from earlier work
# dihydrofolate reductase (DHFR), sequence (P00374 whole entry, species assumed): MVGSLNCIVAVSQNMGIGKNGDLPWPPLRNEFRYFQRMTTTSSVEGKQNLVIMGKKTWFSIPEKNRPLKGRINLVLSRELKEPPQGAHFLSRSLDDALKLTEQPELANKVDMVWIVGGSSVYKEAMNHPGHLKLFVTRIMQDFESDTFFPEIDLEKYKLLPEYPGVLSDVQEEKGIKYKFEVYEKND
# thymidylate synthase (TS), sequence (P04818 whole entry, species assumed): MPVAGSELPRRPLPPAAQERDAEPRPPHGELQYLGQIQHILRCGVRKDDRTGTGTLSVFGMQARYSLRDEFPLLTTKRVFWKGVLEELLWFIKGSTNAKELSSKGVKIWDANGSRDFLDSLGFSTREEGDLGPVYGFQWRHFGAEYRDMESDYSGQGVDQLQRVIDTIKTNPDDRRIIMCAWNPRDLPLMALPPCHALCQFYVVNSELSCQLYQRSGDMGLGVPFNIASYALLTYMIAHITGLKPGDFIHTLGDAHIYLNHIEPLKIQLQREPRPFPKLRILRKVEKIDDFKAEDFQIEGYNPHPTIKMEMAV
SMILES,"CD27+CD38+ GCB cell plasmablast differentiation / plasmablast frequency ([1]; day 7 of culture, lometrexol added after 48 hours, three tonsil donors)",B or T cell survival (viability) ([1]; day 7 tonsillar organoids),TFH frequency ([1]; day 7 tonsillar organoids),T cell-B cell collaboration (humoral immune response) ([1]; tonsil organoid system),production of IFNγ from Th1 cells (murine Th1 cells),production of IL-4 from Th2 cells (murine Th2 cells),"proliferation of activated CD4+ T cells (cell division, number of daughter cells) (human CD4+ T cells)",inhibition of thymidylate synthase (TS) [2],inhibition of dihydrofolate reductase (DHFR) [3]
Nc1nc2c(c(=O)[nH]1)C[C@@H](CCc1ccc(C(=O)N[C@@H](CCC(=O)O)C(=O)O)cc1)CN2 [lometrexol],abrogated plasmablast differentiation in a dose-dependent manner; also recorded: Plasmablast frequency diminishment,without affecting,without affecting,blocks,at low doses enhances,at low doses enhances,can inhibit; also recorded: Dose-dependent inhibition,,
Nc1nc2[nH]cc(CCc3ccc(C(=O)N[C@@H](CCC(=O)O)C(=O)O)cc3)c2c(=O)[nH]1 [pemetrexed],,,,,,,,inhibits,inhibits
